Reference: ChEMBL document CHEMBL1153677, “A novel series of 2-aminotetralins with high affinity and selectivity for the dopamine D3 receptor” (Bioorg Med Chem Lett, 1997)

Tests used:
D(2) dopamine receptor = D(2) dopamine receptor (Homo sapiens, UniProt P14416); test: Displacement of [125I]iodosulpiride from human Dopamine receptor D2 expressed in CHO cells; type: cell-based
D(3) dopamine receptor = D(3) dopamine receptor (Homo sapiens, UniProt P35462); test: Displacement of [125I]iodosulpiride from human Dopamine receptor D3 expressed in CHO cells; type: cell-based
[1] = target: T1, 5-hydroxytryptamine receptor 1A (Mus musculus, UniProt Q64264); test: Ability to displace [125I]iodosulpiride from 5-hydroxytryptamine 1A receptor
T1 sequence (Q64264 whole entry): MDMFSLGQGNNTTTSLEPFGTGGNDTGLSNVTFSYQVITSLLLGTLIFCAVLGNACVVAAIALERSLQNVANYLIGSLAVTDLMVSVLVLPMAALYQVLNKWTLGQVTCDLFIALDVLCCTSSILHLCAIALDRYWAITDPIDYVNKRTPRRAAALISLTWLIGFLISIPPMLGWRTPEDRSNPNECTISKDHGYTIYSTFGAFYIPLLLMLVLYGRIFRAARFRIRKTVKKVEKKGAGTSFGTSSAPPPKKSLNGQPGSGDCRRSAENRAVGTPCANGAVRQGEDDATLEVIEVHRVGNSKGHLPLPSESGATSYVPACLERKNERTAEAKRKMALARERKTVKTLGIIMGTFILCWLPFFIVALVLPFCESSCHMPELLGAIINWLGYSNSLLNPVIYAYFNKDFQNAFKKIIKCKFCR

Chain of D(2) dopamine receptor (P14416 whole entry): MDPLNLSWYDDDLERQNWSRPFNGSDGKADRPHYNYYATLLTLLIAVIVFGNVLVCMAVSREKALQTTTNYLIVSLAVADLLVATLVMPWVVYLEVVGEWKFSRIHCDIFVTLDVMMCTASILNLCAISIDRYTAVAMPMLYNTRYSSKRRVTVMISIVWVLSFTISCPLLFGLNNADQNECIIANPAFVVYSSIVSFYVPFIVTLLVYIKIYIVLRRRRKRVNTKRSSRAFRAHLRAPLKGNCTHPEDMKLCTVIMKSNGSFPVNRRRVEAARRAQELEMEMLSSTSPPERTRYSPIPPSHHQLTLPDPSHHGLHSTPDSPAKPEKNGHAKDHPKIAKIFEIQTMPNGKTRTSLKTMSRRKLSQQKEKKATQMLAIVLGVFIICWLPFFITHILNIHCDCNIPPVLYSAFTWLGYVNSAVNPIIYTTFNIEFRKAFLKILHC
Chain of D(3) dopamine receptor (P35462 whole entry): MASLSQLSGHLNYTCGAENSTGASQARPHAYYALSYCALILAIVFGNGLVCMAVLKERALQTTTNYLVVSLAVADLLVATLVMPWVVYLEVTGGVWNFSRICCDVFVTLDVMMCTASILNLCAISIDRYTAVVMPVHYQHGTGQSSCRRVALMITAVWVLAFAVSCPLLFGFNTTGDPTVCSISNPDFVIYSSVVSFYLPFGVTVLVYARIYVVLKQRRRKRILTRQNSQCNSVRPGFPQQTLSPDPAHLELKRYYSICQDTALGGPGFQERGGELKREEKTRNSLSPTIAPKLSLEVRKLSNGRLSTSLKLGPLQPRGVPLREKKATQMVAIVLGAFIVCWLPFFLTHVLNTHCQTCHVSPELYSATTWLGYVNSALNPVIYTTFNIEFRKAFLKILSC

| Compound | Ki (D(2) dopamine receptor) [nM] | Ki (D(3) dopamine receptor) [nM] | Ki [1] [nM] |
| --- | --- | --- | --- |
| CCCN(CCCCNC(=O)c1ccc(-c2ccccc2)cc1)C1CCc2c(C#N)cccc2C1 (stereo not given) | 100 | 0.501 | – |
| CCCN(CCCCNC(=O)c1ccc(-c2ccccc2)cc1)C1CCc2c(cccc2OCC2CC2)C1 (stereo not given) | 794 | 2.51 | – |
| COc1ccccc1N1CCN(CCCCNC(=O)c2ccc(-c3ccc(C(C)=O)cc3)cc2)CC1 | – | – | 3.16 |
| CCCN(CCCCNC(=O)c1ccc(-c2ccccc2)cc1)C1CCc2c(Cl)cccc2C1 (stereo not given) | 398 | 1.58 | – |
| CN(CCCCNC(=O)c1ccc(-c2ccccc2)cc1)C1CCc2c(O)cccc2C1 (stereo not given) | 126 | 2.51 | – |
| CCCN(CCCCNC(=O)c1ccc(-c2ccccc2)cc1)C1CCc2c(cccc2OS(=O)(=O)C(F)(F)F)C1 (stereo not given) | 398 | 1.58 | – |
| CCCN(CCCCNC(=O)c1ccc(-c2ccccc2)cc1)C1CCc2c(O)cccc2C1 (stereo not given) | 25.1 | 0.2 | – |
| CCCN(CCCCNC(=O)c1ccc(-c2ccccc2)cc1)C1CCc2c(Br)cccc2C1 (stereo not given) | 251 | 1.26 | – |
| CCCN(CCCCNC(=O)c1ccc(-c2ccccc2)cc1)C1CCc2ccccc2C1 (stereo not given) | 316 | 1.58 | – |
| CCCN(CCCCNC(=O)c1ccc(-c2ccccc2)cc1)C1CCc2c(cccc2C(N)=O)C1 (stereo not given) | 631 | 3.98 | – |
| COc1cccc2c1CCC(N(C)CCCCNC(=O)c1ccc(-c3ccccc3)cc1)C2 (stereo not given) | 316 | 12.6 | – |
| CCCN(CCCCNC(=O)c1ccc(-c2ccccc2)cc1)C1CCc2c(cccc2OS(C)(=O)=O)C1 (stereo not given) | 251 | 1.26 | – |
| CCCN(CCCCNC(=O)c1ccc(-c2ccccc2)cc1)C1CCc2c(cccc2OC)C1 (stereo not given) | 126 | 0.794 | – |
